# Reference: paper PMC6151560, “Antibacterial and Antitubercular Activities of Cinnamylideneacetophenones” (Molecules : A Journal of Synthetic Chemistry and Natural …, 2017)
# Read-outs that look alike come from different tables or passages of the source.
# Tests used:
# [1] = test system: Streptococcus mutans (ATCC 25175); assay: Antibacterial broth microdilution (MIC/MBC), S. mutans; conditions: for MIC: ATCC25175, 24 h; for MBC: ATCC25175, read-out: Sm MBC; for Sm MIC: broth microdilution, 24 h, tested 3.9 to 500 µM
# [2] = test system: Pseudomonas aeruginosa (ATCC 15442); assay: Antibacterial broth microdilution (MIC), P. aeruginosa; conditions: for MIC: ATCC15442, 24 h, read-out: Pa MIC; for Pa MIC: broth microdilution, 24 h
# [3] = test system: Streptococcus sanguinis (ATCC 10557); assay: Antibacterial broth microdilution (MIC/MBC), S. sanguinis; conditions: for MIC: ATCC10557, 24 h; for MBC: ATCC10557, read-out: Ss MBC; for Ss MIC: broth microdilution, 24 h, tested 3.9 to 500 µM
# E. coli = test system: E. coli; set-up: method as in PMID 17662960; conditions: cited from earlier work
# S. aureus strains = test system: S. aureus strains; set-up: method as in PMID 28066373; conditions: cited from earlier work
# M. tuberculosis = test system: M. tuberculosis; set-up: method as in PMID 26400221; conditions: cited from earlier work
# [4] = test system: Mycobacterium tuberculosis H37Rv (ATCC 27294); assay: Antitubercular REMA (Resazurin Microtiter Assay); format: cell-based; conditions: read-out: Mt MIC
# [5] = test system: Staphylococcus aureus (ATCC 14458); assay: Antibacterial broth microdilution (MIC/MBC), S. aureus; conditions: for MIC: ATCC14458, 24 h; for Sa MIC: broth microdilution, 24 h, tested 3.9 to 500 µM; for MBC: ATCC14458, read-out: Sa MBC
# [6] = test system: Escherichia coli (ATCC 10536); assay: Antibacterial broth microdilution (MIC), E. coli; conditions: for MIC: ATCC10536, 24 h, read-out: Ec MIC; for Ec MIC: broth microdilution, 24 h
# [7] = Partition coefficient log Po/w by HPLC-PDA (OECD method); conditions: for chromatographic logP: n-octanol/water (from HPLC retention on a C-18 column)
# [8] = DPPH radical scavenging ability; conditions: at 1600, 800, 400, and 200 µM; DPPH 100 μM, 30 min, 25 °C
# Excerpt: The low selectivity of the cinnamylideneacetophenones 3 and 4 can be correlated with their phenolic nature. Studies report the ability of phenolic compounds to act on widespread radical processes shared by eukaryotic and prokaryotic cells. We hypothesized this behavior may be responsible by simultaneous activity toward bacteria and pulmonary cells. Therefore, we evaluated the radical scavenging ability of 3 and 4 using DPPH (2,2-diphenyl-1-picrylhydrazyl) protocol. […] Altogether, low selectivity of 3 and 4 cannot be strongly related to radical processes. Quercetin and gallic acid were used as positive controls due to their phenolic nature and potent radical scavenging ability.
# Radical scavenging activity of compounds 3 and 4 was determined using 2,2-diphenyl-1-picrylhydrazyl (DPPH). Aliquots of 10 µL of 3, 4, and positive controls (quercetin and gallic acid) at concentrations 1600, 800, 400, and 200 μM (in EtOH) were individually added in 190 µL DPPH (100 μM). The mixtures were incubated in the dark at 25 °C for 30 min. Remaining DPPH was determined spectroscopically at 490 nm by blanking against absolute ethanol. Radical scavenging ability was expressed by using mean values obtained from triplicates as the percentage of radicals reduced by calculating the following equation: DPPH scavenging % = [1 − (Asample/A) × 100], where A is test absorbance without sample (only EtOH and DPPH) and Asample is test absorbance with compounds.
# [9] = read-out: Sm MIC, Streptococcus mutans, broth microdilution, 24 h, tested 3.9 to 500 µM
# [10] = read-out: Ss MIC, Streptococcus sanguinis, broth microdilution, 24 h, tested 3.9 to 500 µM
# [11] = Mycobacterium tuberculosis, 168 h
# [12] = M. tuberculosis H37Rv, REMA, 7 days, lowest concentration giving 90% inhibition of growth
# [13] = Mycobacterium tuberculosis, 168 h, M. tuberculosis H37Rv, REMA, 7 days, lowest concentration giving 90% inhibition of growth
# [14] = read-out: Sa MIC, Staphylococcus aureus, broth microdilution, 24 h, tested 3.9 to 500 µM
molecule,measurement,setting,value
"[H]/N=C(\N/C(=N/[H])NCCCCCCNC(=N)NC(=N)Nc1ccc(Cl)cc1)Nc1ccc(Cl)cc1 [CHX, chlorhexidine, reference compound]",MIC,[1]; [9],2.4 µM
same,MBC,[1],4.7 µM
same,MIC,[2],19.4 µM
same,MIC,[3]; [10],4.7 µM
same,MBC,[3],9.5 µM
"O=C/C=C/c1ccccc1 [Compound 1, Cinnamaldehyde, reference compound]",MIC against E. coli,E. coli,1000 µg/mL
same,MIC against E. coli,E. coli; converted value in brackets,7566 µM
same,MIC,[1]; read-out: Sm MIC,> 500 µM
same,Sm MIC,[1],>500 µM
same,MIC against S. aureus strains,S. aureus strains,250 µg/mL
same,MIC against S. aureus strains,S. aureus strains; converted value in brackets,1891 µM
same,MIC against M. tuberculosis,M. tuberculosis,3.12 µg/mL
same,MIC against M. tuberculosis,M. tuberculosis; converted value in brackets,23 µM
same,MIC,[4]; [11],> 200 µM
same,MIC,[2],> 500 µM
same,Pa MIC,[2],>500 µM
same,MIC,[3]; read-out: Ss MIC,> 500 µM
same,Ss MIC,[3],>500 µM
same,MIC,[5]; read-out: Sa MIC,> 500 µM
same,Sa MIC,[5],>500 µM
same,MIC,[6],> 500 µM
same,Ec MIC,[6],>500 µM
"O=C(/C=C/C=C/c1ccccc1)c1ccccc1 [Compound 2, (2E,4E)-1,5-diphenylpenta-2,4-dien-1-one]",MIC,[1]; [9],> 500 µM
same,MIC,[4]; [12],57.2 µM
same,MIC,[4]; [13],57.2 to 70.9 µM
same,MIC,[2],> 500 µM
same,MIC,[3]; [10],> 500 µM
same,MIC,[5]; [14],> 500 µM
same,chromatographic logP,[7],3.2
same,MIC,[6],> 500 µM
"Nc1cccc(C(=O)/C=C/C=C/c2ccccc2)c1 [Compound 5, (2E,4E)-1-(3-aminophenyl)-5-phenylpenta-2,4-dien-1-one]",MIC,[1]; [9],313 µM
same,MBC,[1],313 µM
same,MIC,[4]; [13],> 200 µM
same,MIC,[2],> 500 µM
same,MIC,[3]; [10],> 500 µM
same,MIC,[5]; [14],> 500 µM
same,chromatographic logP,[7],2.5
same,MIC,[6],> 500 µM
"COc1cccc(C(=O)/C=C/C=C/c2ccccc2)c1 [Compound 6, (2E,4E)-1-(3-methoxyphenyl)-5-phenylpenta-2,4-dien-1-one]",MIC,[1]; [9],≥ 296 µM
same,MIC,[4]; [13],> 200 µM
same,MIC,[2],> 500 µM
same,MIC,[3]; [10],≥ 296 µM
same,MIC,[5]; [14],≥ 296 µM
same,MBC,[5],296 µM
same,chromatographic logP,[7],3.3
same,MIC,[6],> 500 µM
"COc1ccc(C(=O)/C=C/C=C/c2ccccc2)cc1 [Compound 7, (2E,4E)-1-(4-methoxyphenyl)-5-phenylpenta-2,4-dien-1-one]",MIC,[1]; [9],≥ 296 µM
same,MIC,[4]; [12],66.6 µM
same,MIC,[4]; [13],57.2 to 70.9 µM
same,MIC,[2],> 500 µM
same,MIC,[3]; [10],≥ 296 µM
same,MIC,[5]; [14],≥ 296 µM
same,chromatographic logP,[7],3.2
same,MIC,[6],> 500 µM
"COc1cc(C(=O)/C=C/C=C/c2ccccc2)ccc1O [Compound 9, (2E,4E)-1-(4-hydroxy-3-methoxyphenyl)-5-phenylpenta-2,4-dien-1-one]",MIC,[1]; [9],> 500 µM
same,MIC,[4]; [13],83.5 µM
same,MIC,[2],> 500 µM
same,MIC,[3]; [10],> 500 µM
same,MIC,[5]; [14],279 µM
same,MBC,[5],279 µM
same,chromatographic logP,[7],2.7
same,MIC,[6],> 500 µM
"O=C(/C=C/C=C/c1ccccc1)c1ccc(F)cc1 [Compound 10, (2E,4E)-1-(4-fluorophenyl)-5-phenylpenta-2,4-dien-1-one]",MIC,[1]; [9],> 500 µM
same,MIC,[4]; [12],67.4 µM
same,MIC,[4]; [13],57.2 to 70.9 µM
same,MIC,[2],> 500 µM
same,MIC,[3]; [10],> 500 µM
same,MIC,[5]; [14],> 500 µM
same,chromatographic logP,[7],3.3
same,MIC,[6],> 500 µM
"O=C(/C=C/C=C/c1ccccc1)c1ccc(Cl)cc1 [Compound 11, (2E,4E)-1-(4-chlorophenyl)-5-phenylpenta-2,4-dien-1-one]",chromatographic logP,physchem,3.7
same,MIC,[1]; read-out: Sm MIC,> 500 µM
same,MIC,[4]; [11],> 200 µM
same,MIC,[2],> 500 µM
same,MIC,[3]; read-out: Ss MIC,> 500 µM
same,MIC,[5]; read-out: Sa MIC,> 500 µM
same,MIC,[6],> 500 µM
"O=C(/C=C/C=C/c1ccccc1)c1ccc(Br)cc1 [Compound 12, (2E,4E)-1-(4-bromophenyl)-5-phenylpenta-2,4-dien-1-one]",chromatographic logP,physchem,3.8
same,MIC,[1]; read-out: Sm MIC,> 500 µM
same,MIC,[4]; [11],> 200 µM
same,MIC,[2],> 500 µM
same,MIC,[3]; read-out: Ss MIC,> 500 µM
same,MIC,[5]; read-out: Sa MIC,> 500 µM
same,MIC,[6],> 500 µM
"O=C(/C=C/C=C/c1ccccc1)c1ccc(Cl)c(Cl)c1 [Compound 13, (2E,4E)-1-(3,4-dichlorophenyl)-5-phenylpenta-2,4-dien-1-one]",MIC,[1]; [9],> 500 µM
same,MIC,[4]; [13],> 200 µM
same,MIC,[2],> 500 µM
same,MIC,[3]; [10],> 500 µM
same,MIC,[5]; [14],> 500 µM
same,chromatographic logP,[7],4.1
same,MIC,[6],> 500 µM
"O=C(/C=C/C=C/c1ccccc1)c1cccc(C(F)(F)F)c1 [Compound 14, (2E,4E)-1-(3-(trifluoromethyl)phenyl)-5-phenylpenta-2,4-dien-1-one]",MIC,[1]; [9],> 500 µM
same,MIC,[4]; [13],> 200 µM
same,MIC,[2],> 500 µM
same,MIC,[3]; [10],> 500 µM
same,MIC,[5]; [14],> 500 µM
same,chromatographic logP,[7],3.7
same,MIC,[6],> 500 µM
"O=C(/C=C/C=C/c1ccccc1)c1cccc([N+](=O)[O-])c1 [Compound 15, (2E,4E)-1-(3-nitrophenyl)-5-phenylpenta-2,4-dien-1-one]",MIC,[1]; [9],> 500 µM
same,MIC,[4]; [13],> 200 µM
same,MIC,[2],> 500 µM
same,MIC,[3]; [10],> 500 µM
same,MIC,[5]; [14],> 500 µM
same,chromatographic logP,[7],3.3
same,MIC,[6],> 500 µM
"O=C(/C=C/C=C/c1ccccc1)c1ccc([N+](=O)[O-])cc1 [Compound 16, (2E,4E)-1-(4-nitrophenyl)-5-phenylpenta-2,4-dien-1-one]",MIC,[1]; [9],> 500 µM
same,MIC,[4]; [13],> 200 µM
same,MIC,[2],> 500 µM
same,MIC,[3]; [10],> 500 µM
same,MIC,[5]; [14],> 500 µM
same,chromatographic logP,[7],3.2
same,MIC,[6],> 500 µM
"Cc1cccc(C(=O)/C=C/C=C/c2ccccc2)c1 [Compound 17, (2E,4E)-1-(3-methylphenyl)-5-phenylpenta-2,4-dien-1-one]",MIC,[1]; [9],> 500 µM
same,MIC,[4]; [13],> 200 µM
same,MIC,[2],> 500 µM
same,MIC,[3]; [10],> 500 µM
same,MIC,[5]; [14],> 500 µM
same,chromatographic logP,[7],3.6
same,MIC,[6],> 500 µM
"Cc1ccc(C(=O)/C=C/C=C/c2ccccc2)cc1 [Compound 18, (2E,4E)-1-(4-methylphenyl)-5-phenylpenta-2,4-dien-1-one]",MIC,[1]; [9],> 500 µM
same,MIC,[4]; [12],70.9 µM
same,MIC,[4]; [13],57.2 to 70.9 µM
same,MIC,[2],> 500 µM
same,MIC,[3]; [10],> 500 µM
same,MIC,[5]; [14],> 500 µM
same,chromatographic logP,[7],3.5
same,MIC,[6],> 500 µM
"NNC(=O)c1ccncc1 [ISO, isoniazid, reference compound]",MIC,[4]; [13],0.3 µM
"CC1(C)S[C@@H]2[C@H](NC(=O)Cc3ccccc3)C(=O)N2[C@H]1C(=O)O [PEN, Penicillin G, reference compound]",MIC,[3]; [10],0.4 µM
same,MBC,[3],0.4 µM
same,MIC,[6],118 µM
"O=c1c(O)c(-c2ccc(O)c(O)c2)oc2cc(O)cc(O)c12 [Quercetin, reference compound]",percentages of DPPH scavenging ability,[8],≥ 95%
"CN[C@H](CC(C)C)C(=O)N[C@H]1C(=O)N[C@@H](CC(N)=O)C(=O)N[C@H]2C(=O)N[C@H]3C(=O)N[C@H](C(=O)N[C@H](C(=O)O)c4cc(O)cc(O)c4-c4cc3ccc4O)[C@H](O)c3ccc(c(Cl)c3)Oc3cc2cc(c3O[C@@H]2O[C@H](CO)[C@@H](O)[C@H](O)[C@H]2O[C@H]2C[C@](C)(N)[C@H](O)[C@H](C)O2)Oc2ccc(cc2Cl)[C@H]1O [VAN, vancomycin, reference compound]",MIC,[3]; read-out: Ss MIC,3.3 µM
same,MBC,[3],3.3 µM
same,MIC,[5]; read-out: Sa MIC,3.3 µM
same,MBC,[5],6.8 µM
same,MIC,[6],53.8 µM
"O=C(O)c1cc(O)c(O)c(O)c1 [gallic acid, reference compound]",percentages of DPPH scavenging ability,[8],≥ 95%
"(2E,4E)-1-(3,4-methylenedioxy)-5-phenylpenta-2,4-dien-1-one [Compound 8]",Sm MIC,[1],>500 µM
same,Pa MIC,[2],>500 µM
same,Ss MIC,[3],>500 µM
same,Sa MIC,[5],>500 µM
same,log Po/w,"[7]; n-octanol/water, HPLC-PDA method, MeOH:H2O (3:1)",3.2
same,Ec MIC,[6],>500 µM
